*1 amine or outer side, *2 acyl side, *3 side chain or, on linkers, in order; H or OH if unused. Where a SMILES comes first, the peptide text is derived from it. [ ]: non-standard residue; d: D form. ξ: configuration not given here. MeBmt = C/C=C/C[C@@H](C)[C@@H](O)[C@H](NC)C(=O)O; X2 = C=CCOC(C)(C)C[C@@H](C(=O)[*:2])N(C)[*:1]; dNMeDab(Me2) = CN[C@H](CCN(C)C)C(=O)O; NMeIle(3ξ) = CCC(C)[C@H](NC)C(=O)O; NMeL = CN[C@@H](CC(C)C)C(=O)O; NMeV = CN[C@H](C(=O)O)C(C)C; Abu = CC[C@H](N)C(=O)O

The assay deals with HCV replicon in cell line ET (luc-ubi-neo/ET), Huh7 human hepatoma cells. The assay can be described thus: HCV subgenomic replicon assay (luciferase end point). Type of assay: cell-based. As to conditions: Hepatitis C virus, Huh-7, read-out: Antiviral activity: IC50 (μM). On the procedure: The anti-HCV activity of cyclosporine derivatives were evaluated in the HCV subgenomic replicon assay. The assay use the cell line ET (luc-ubi-neo/ET), which is a Huh7 human hepatoma cell line harboring an HCV replicon with a stable luciferase (Luc) reporter. HCV RNA replication was assessed by quantifying HCV replicon-derived luciferase activity. The antiviral activity of cyclosporine analogs were evaluated after drug treatment, the EC 50 and EC 90 were determined in subsequent assessments by using the luciferase end point (Krieger, N., et al., 2001, J. Virol. 75, 4614-4624; Pietschmann, T., et al., 2002, J. Virol. 76, 4008-4021; each of which is incorporated herein by reference).
For orientation: IC50 means the concentration that gives 50% inhibition. As for `C/C=C/C[C@@H](C)[C@@H](O)[C@H]1C(=O)N[C@@H](CC)C(=O)N(C)[C@H](CCN(C)C)C(=O)N(C)[C@@H](CC(C)(C)O)C(=O)N[C@@H](C(C)C)C(=O)N(C)[C@@H](CC(C)C)C(=O)N[C@@H](C)C(=O)N[C@H](C)C(=O)N(C)[C@@H](CC(C)C)C(=O)N(C)[C@@H](CC(C)C)C(=O)N(C)[C@@H](C(C)C)C(=O)N1C` [Example 20, [(R)-2-(N,N-Dimethylamino)ethyl-Sar]-3-[(γ-hydroxy)-NMeLeu]-4-cyclosporin], the 50% inhibitory concentration (IC50) was under 0.25 µM.

In the case of `C/C=C/C[C@@H](C)[C@@H](O)[C@H]1C(=O)N[C@@H](CC)C(=O)N(C)[C@H](CCN(C)C)C(=O)N(C)[C@@H](CC(C)(C)OC)C(=O)N[C@@H](C(C)C)C(=O)N(C)[C@@H](CC(C)C)C(=O)N[C@@H](C)C(=O)N[C@H](C)C(=O)N(C)[C@@H](CC(C)C)C(=O)N(C)[C@@H](CC(C)C)C(=O)N(C)[C@@H](C(C)C)C(=O)N1C` [Example 21, [(R)-2-(N,N-Dimethylamino)ethyl-Sar]-3-[(γ-methoxy)-NMeLeu]-4-cyclosporin], the IC50 was under 0.25 µM.

On to `C=CCOC(C)(C)C[C@H]1C(=O)N[C@@H](C(C)C)C(=O)N(C)[C@@H](CC(C)C)C(=O)N[C@@H](C)C(=O)N[C@H](C)C(=O)N(C)[C@@H](CC(C)C)C(=O)N(C)[C@@H](CC(C)C)C(=O)N(C)[C@@H](C(C)C)C(=O)N(C)[C@@H]([C@H](O)[C@H](C)C/C=C/C)C(=O)N[C@@H](CC)C(=O)N(C)[C@H](CCN(C)C)C(=O)N1C` [Example 22, [(R)-2-(N,N-Dimethylamino)ethyl-Sar]-3-[(γ-allyloxy)-NMeLeu]-4-cyclosporin] (cyclo(A[dA][NMeL][NMeL][NMeV][MeBmt][Abu][dNMeDab(Me2)][X2]V[NMeL])), for which the IC50 was under 0.25 µM.

On to `C/C=C/C[C@@H](C)[C@@H](O)[C@H]1C(=O)N[C@@H](CC)C(=O)N(C)[C@H](CCN(C)C)C(=O)N(C)[C@@H](C(C)CC)C(=O)N[C@@H](C(C)C)C(=O)N(C)[C@@H](CC(C)C)C(=O)N[C@@H](C)C(=O)N[C@H](C)C(=O)N(C)[C@@H](CC(C)C)C(=O)N(C)[C@@H](CC(C)C)C(=O)N(C)[C@@H](C(C)C)C(=O)N1C` (stereo partly drawn) [Example 24, [(R)-2-(N,N-Dimethylamino)ethyl-Sar]-3-[NMeIle]-4-cyclosporin] (cyclo(A[dA][NMeL][NMeL][NMeV][MeBmt][Abu][dNMeDab(Me2)][NMeIle(3ξ)]V[NMeL])), for which the half-maximal inhibitory concentration (IC50) is under 0.25 µM.

As for `C/C=C/C[C@@H](C)[C@@H](O)[C@H]1C(=O)N[C@@H](CC)C(=O)N(C)[C@H](CCN(CC)CC)C(=O)N(C)[C@@H](CC(C)C)C(=O)N[C@@H](C(C)C)C(=O)N(C)[C@@H](CC(C)C)C(=O)N[C@@H](C)C(=O)N[C@H](C)C(=O)N(C)[C@@H](CC(C)C)C(=O)N(C)[C@@H](CC(C)C)C(=O)N(C)[C@@H](C(C)C)C(=O)N1C` [Example 25, [(R)-2-(N,N-Diethylamino)ethyl-Sar]-3-cyclosporin], the IC50 is under 0.25 µM.

`C/C=C/C[C@@H](C)[C@@H](O)[C@H]1C(=O)N[C@@H](CC)C(=O)N(C)[C@H](CCN(CC)CC)C(=O)N(C)[C@@H](CC(C)(C)O)C(=O)N[C@@H](C(C)C)C(=O)N(C)[C@@H](CC(C)C)C(=O)N[C@@H](C)C(=O)N[C@H](C)C(=O)N(C)[C@@H](CC(C)C)C(=O)N(C)[C@@H](CC(C)C)C(=O)N(C)[C@@H](C(C)C)C(=O)N1C` [Example 26, [(R)-2-(N,N-Diethylamino)ethyl-Sar]-3-[(γ-hydroxy)-NMeLeu]-4-cyclosporin]: the concentration for half-maximal inhibition (IC50) was under 0.25 µM.

Take `C/C=C/C[C@@H](C)[C@@H](O)[C@H]1C(=O)N[C@@H](CC)C(=O)N(C)[C@H](CCN(CC)CC)C(=O)N(C)[C@@H](CC(C)(C)OC)C(=O)N[C@@H](C(C)C)C(=O)N(C)[C@@H](CC(C)C)C(=O)N[C@@H](C)C(=O)N[C@H](C)C(=O)N(C)[C@@H](CC(C)C)C(=O)N(C)[C@@H](CC(C)C)C(=O)N(C)[C@@H](C(C)C)C(=O)N1C` [Example 27, [(R)-2-(N,N-Diethylamino)ethyl-Sar]-3-[(γ-methoxy)-NMeLeu]-4-cyclosporin]: the IC50 is under 0.25 µM.
